# Data as given in PubChem BioAssay AID1963982 (Molecular Pharmacology Branch, DTP, NCI, 2024).
# Test system: 313798-341-R-J2-PDC spheroids, viability
# Test: Anticancer human tumor 313798-341-R-J2-PDC patient-derived cervical squamous cell carcinoma cell line growth inhibition [PI3K]
# Settings: spheroids with HUVEC and MSC; for viability, T/C: stronger effect = lower value
# Method in brief: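 Three cell types, namely tumor cells, endothelial cells and mesenchymal stem cells, formed each spheroid. Combinations with four PI3K inhibitors were screened at clinically achievable concentrations decreasing by half-log, and spheroid viability was recorded.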
# [1] = curve of first compound, second compound 0.0316 µM
# [2] = curve of first compound, second compound 0.1 µM
# [3] = curve of first compound, second compound 0.316 µM
# [4] = curve of first compound, second compound 1 µM
# [5] = second compound 0.0316 µM, first compound 0.0316 µM
# [6] = second compound 0.0316 µM, first compound 0.1 µM
# [7] = second compound 0.1 µM, first compound 0.0316 µM
# [8] = second compound 0.1 µM, first compound 0.1 µM
# [9] = second compound 0.316 µM, first compound 0.0316 µM
# [10] = second compound 0.316 µM, first compound 0.1 µM
# [11] = second compound 1 µM, first compound 0.0316 µM
# [12] = second compound 1 µM, first compound 0.1 µM
# [13] = curve of first compound, second compound 0.00316 µM
# [14] = curve of first compound, second compound 0.01 µM
# [15] = second compound 0.00316 µM, first compound 0.0316 µM
# [16] = second compound 0.00316 µM, first compound 0.1 µM
# [17] = second compound 0.00316 µM, first compound 0.316 µM
# [18] = second compound 0.00316 µM, first compound 1 µM
# [19] = second compound 0.00316 µM, first compound 3.16 µM
# [20] = second compound 0.00316 µM, first compound 10 µM
# [21] = second compound 0.01 µM, first compound 0.0316 µM
# [22] = second compound 0.01 µM, first compound 0.1 µM
# [23] = second compound 0.01 µM, first compound 0.316 µM
# [24] = second compound 0.01 µM, first compound 1 µM
# [25] = second compound 0.01 µM, first compound 3.16 µM
# [26] = second compound 0.01 µM, first compound 10 µM
# [27] = second compound 0.0316 µM, first compound 0.316 µM
# [28] = second compound 0.0316 µM, first compound 1 µM
# [29] = second compound 0.0316 µM, first compound 3.16 µM
# [30] = second compound 0.0316 µM, first compound 10 µM
# [31] = second compound 0.1 µM, first compound 0.316 µM
# [32] = second compound 0.1 µM, first compound 1 µM
# [33] = second compound 0.1 µM, first compound 3.16 µM
# [34] = second compound 0.1 µM, first compound 10 µM
# [35] = second compound 0.316 µM, first compound 0.316 µM
# [36] = second compound 0.316 µM, first compound 1 µM
# [37] = second compound 0.316 µM, first compound 3.16 µM
# [38] = second compound 0.316 µM, first compound 10 µM
# [39] = second compound 1 µM, first compound 0.316 µM
# [40] = second compound 1 µM, first compound 1 µM
# [41] = second compound 1 µM, first compound 3.16 µM
# [42] = second compound 1 µM, first compound 10 µM
# 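Further: spheroids exposed to compounds for seven days.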
# 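Wherever viability, T/C is given: 100% = DMSO vehicle control viability.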
structure (smiles),measurement,setting,value
Cn1ncnc1[C@H]1c2n[nH]c(=O)c3cc(F)cc(c23)N[C@@H]1c1ccc(F)cc1 + CC(Nc1ncnc2nc[nH]c12)c1cc2cccc(Cl)c2c(=O)n1-c1ccccc1,IC50,[1],> 100 nM
same,IC50,[2],> 100 nM
same,IC50,[3],> 100 nM
same,IC50,[4],> 100 nM
same,IC50,"curve of first compound, second compound 3.16 µM",> 100 nM
same,IC50,"curve of first compound, second compound 10 µM",> 100 nM
same,"viability, T/C","second compound 0.0316 µM, first compound 0.000316 µM",110%
same,"viability, T/C","second compound 0.0316 µM, first compound 0.001 µM",94.2%
same,"viability, T/C","second compound 0.0316 µM, first compound 0.00316 µM",89.2%
same,"viability, T/C","second compound 0.0316 µM, first compound 0.01 µM",109%
same,"viability, T/C",[5],89.5%
same,"viability, T/C",[6],77.1%
same,"viability, T/C","second compound 0.1 µM, first compound 0.000316 µM",94.7%
same,"viability, T/C","second compound 0.1 µM, first compound 0.001 µM",101%
same,"viability, T/C","second compound 0.1 µM, first compound 0.00316 µM",91.8%
same,"viability, T/C","second compound 0.1 µM, first compound 0.01 µM",96.7%
same,"viability, T/C",[7],97.4%
same,"viability, T/C",[8],84%
same,"viability, T/C","second compound 0.316 µM, first compound 0.000316 µM",92.6%
same,"viability, T/C","second compound 0.316 µM, first compound 0.001 µM",103%
same,"viability, T/C","second compound 0.316 µM, first compound 0.00316 µM",102%
same,"viability, T/C","second compound 0.316 µM, first compound 0.01 µM",105%
same,"viability, T/C",[9],85.8%
same,"viability, T/C",[10],85.2%
same,"viability, T/C","second compound 1 µM, first compound 0.000316 µM",102%
same,"viability, T/C","second compound 1 µM, first compound 0.001 µM",102%
same,"viability, T/C","second compound 1 µM, first compound 0.00316 µM",103%
same,"viability, T/C","second compound 1 µM, first compound 0.01 µM",95.5%
same,"viability, T/C",[11],90.9%
same,"viability, T/C",[12],86.2%
same,"viability, T/C","second compound 3.16 µM, first compound 0.000316 µM",92.9%
same,"viability, T/C","second compound 3.16 µM, first compound 0.001 µM",91.1%
same,"viability, T/C","second compound 3.16 µM, first compound 0.00316 µM",87.7%
same,"viability, T/C","second compound 3.16 µM, first compound 0.01 µM",95.5%
same,"viability, T/C","second compound 3.16 µM, first compound 0.0316 µM",84.1%
same,"viability, T/C","second compound 3.16 µM, first compound 0.1 µM",79.9%
same,"viability, T/C","second compound 10 µM, first compound 0.000316 µM",88.1%
same,"viability, T/C","second compound 10 µM, first compound 0.001 µM",80.8%
same,"viability, T/C","second compound 10 µM, first compound 0.00316 µM",73.8%
same,"viability, T/C","second compound 10 µM, first compound 0.01 µM",78.6%
same,"viability, T/C","second compound 10 µM, first compound 0.0316 µM",74.3%
same,"viability, T/C","second compound 10 µM, first compound 0.1 µM",61.5%
C#Cc1c(F)ccc2cc(O)cc(-c3ncc4c(N5CC6CCC(C5)N6)nc(OCC56CCCN5CC(F)C6)nc4c3F)c12 (stereo not drawn) + CC(Nc1ccc2c(c1)OCCn1cc(N3C(=O)OCC3C(F)F)nc1-2)C(N)=O,IC50,[13],> 10000 nM
same,IC50,[14],> 10000 nM
same,IC50,[1],> 10000 nM
same,IC50,[2],> 10000 nM
same,IC50,[3],> 10000 nM
same,IC50,[4],> 10000 nM
same,"viability, T/C",[15],91.8%
same,"viability, T/C",[16],96.8%
same,"viability, T/C",[17],97.4%
same,"viability, T/C",[18],95.5%
same,"viability, T/C",[19],99.3%
same,"viability, T/C",[20],99.3%
same,"viability, T/C",[21],97.7%
same,"viability, T/C",[22],99.9%
same,"viability, T/C",[23],102%
same,"viability, T/C",[24],110%
same,"viability, T/C",[25],116%
same,"viability, T/C",[26],98.9%
same,"viability, T/C",[5],100%
same,"viability, T/C",[6],113%
same,"viability, T/C",[27],109%
same,"viability, T/C",[28],99.1%
same,"viability, T/C",[29],109%
same,"viability, T/C",[30],104%
same,"viability, T/C",[7],118%
same,"viability, T/C",[8],94.5%
same,"viability, T/C",[31],108%
same,"viability, T/C",[32],104%
same,"viability, T/C",[33],102%
same,"viability, T/C",[34],97%
same,"viability, T/C",[9],91%
same,"viability, T/C",[10],81.6%
same,"viability, T/C",[35],74.2%
same,"viability, T/C",[36],78.8%
same,"viability, T/C",[37],83%
same,"viability, T/C",[38],76.9%
same,"viability, T/C",[11],60.6%
same,"viability, T/C",[12],62.2%
same,"viability, T/C",[39],61.2%
same,"viability, T/C",[40],58.9%
same,"viability, T/C",[41],58.6%
same,"viability, T/C",[42],45.6%
CC(Nc1ncnc2nc[nH]c12)c1cc2cccc(Cl)c2c(=O)n1-c1ccccc1 (stereo not drawn),"viability, T/C",compound 0.0316 µM,100% [middle of 8 runs]
same,"viability, T/C",compound 0.1 µM,95.1% [middle of 8 runs]
same,"viability, T/C",compound 0.316 µM,99.5% [middle of 8 runs]
same,"viability, T/C",compound 1 µM,97.6% [middle of 8 runs]
same,"viability, T/C",compound 3.16 µM,94.7% [middle of 8 runs]
same,"viability, T/C",compound 10 µM,89.6% [middle of 8 runs]
same,IC50,"compound alone, run of 04/25/2023",> 10000 nM
Cn1ncc(Cl)c1-c1cc(C(=O)NC(CN)Cc2cccc(F)c2)sc1Cl (stereo not drawn) + CC(Nc1ccc2c(c1)OCCn1cc(N3C(=O)OCC3C(F)F)nc1-2)C(N)=O,IC50,[13],970 nM
same,IC50,[14],1040 nM
same,IC50,[1],889 nM
same,IC50,[2],822 nM
same,IC50,[3],535 nM
same,IC50,[4],190 nM
same,"viability, T/C",[15],117%
same,"viability, T/C",[16],91.3%
same,"viability, T/C",[17],94.2%
same,"viability, T/C",[18],48.3%
same,"viability, T/C",[19],34.4%
same,"viability, T/C",[20],38.6%
same,"viability, T/C",[21],97.3%
same,"viability, T/C",[22],102%
same,"viability, T/C",[23],75.5%
same,"viability, T/C",[24],52.4%
same,"viability, T/C",[25],38.1%
same,"viability, T/C",[26],35.6%
same,"viability, T/C",[5],102%
same,"viability, T/C",[6],107%
same,"viability, T/C",[27],84.5%
same,"viability, T/C",[28],46.8%
same,"viability, T/C",[29],35.1%
same,"viability, T/C",[30],34.9%
same,"viability, T/C",[7],114%
same,"viability, T/C",[8],95.7%
same,"viability, T/C",[31],67.6%
same,"viability, T/C",[32],47.4%
same,"viability, T/C",[33],35.2%
same,"viability, T/C",[34],36.8%
same,"viability, T/C",[9],74.6%
same,"viability, T/C",[10],69.6%
same,"viability, T/C",[35],57.9%
same,"viability, T/C",[36],41.4%
same,"viability, T/C",[37],32.8%
same,"viability, T/C",[38],35.7%
same,"viability, T/C",[11],59.8%
same,"viability, T/C",[12],56.1%
same,"viability, T/C",[39],44.7%
same,"viability, T/C",[40],37.2%
same,"viability, T/C",[41],28.7%
same,"viability, T/C",[42],32.2%
